In ChEMBL document CHEMBL5726158, “5H-pyrido[3,2-B]indole compounds as anticancer agents” (2019):

Biological target: Bromodomain-containing protein 4 (Homo sapiens, UniProt O60885)
Assay: Time Resolved Fluorescence Resonance Energy Transfer (TR-FRET) Assay: The binding of compounds to bromodomain BRD4 (44-168), BRD4 (333-460), and BRD4 (1-477 or 44-460) was assessed using a time resolved fluorescent resonance energy transfer binding assay (1), that measures the binding of a fluorescently labeled probe molecule to the bromodomain protein. The bromodomain protein, fluorescent probe molecule (either a biotinylated histone peptide or a fluorescently labeled small molecule), and dose-responsed test compound are incubated together to reach thermodynamic equilibrium. In the absence of a test compound, the bromodomain and small molecule are bound, resulting in a high fluorescent signal. In the presence of a sufficient concentration of inhibitor, this interaction is disrupted resulting in a lost of fluorescent resonance energy transfer.All assay components were dissolved in buffer composition 20 mM Hepes pH 7.5, 150 mM NaCl, 5 mM DTT, 0.005% Tween 20, and 100 ug/ml BSA for BRD4 (1-477 and 44-460). The final concentrations of the bromodomain proteins are 1.6 nM BRD4(44-168), 1 nM BRD4(333-460), and 1 nM BRD4(1-477 or 44-460), and the fluorescent probe molecule is 100 nM, 50 nM, and 7.5 nM respectively. All proteins were biotinylated. […]

Cc1nnn(C)c1-c1cnc2c3cc(C4CCN(C(=O)OC(C)(C)C)CC4)ccc3n([C@H](c3ccccc3)C3CCOCC3)c2c1
IC50: < 5 nM
